Data: patent US20250171454A1, “HETEROBIFUNCTIONAL […] AMINOPURINE AND RELATED COMPOUNDS AND THEIR USE IN NSD2 DEGRADATION AND TREATING MEDICAL CONDITIONS” (K36 Therapeutics, Inc., priority 2023, published 2025)

target: recombinant human NSD2 (amino acids 2-end) with N-terminal His tag (Homo sapiens (Human), UniProt O96028); test: NSD2 inhibitory activity, modified RBC HotSpot HMT Assay; format: biochemical; settings: NSD2 2 nM, chicken oligonucleosomes 0.05 mg/mL, 3H-SAM 1 μM, 1 hour at 30° C.
Description: Exemplary compounds were tested for NSD2 inhibitory activity using a modified RBC HotSpot HMT Assay.
A reaction mixture was prepared by adding oligonucleosomes from chicken (0.05 mg/mL) to freshly prepared reaction buffer containing 50 mM Tris-HCl (pH 8.5), 50 mM NaCl, 5 mM MgCl2, 0.01% Brij35, 1 mM DTT, and 1% DMSO followed by the addition of recombinant human NSD2 (amino acids 2-end) with N-terminal His tag (2 nM; GenBank Accession No. NM_001042424; MW=155.5 kDa; expressed in Sf9 insect cells) and gentle mixing. The test compounds were diluted in DMSO (to 10 mM), and added to the reaction mixture in nanoliter amounts by using Acoustic Technology (Echo 550, LabCyte Inc. Sunnyvale, CA) and incubated for 20 minutes at room temperature. […] The reaction mixture was delivered to filter paper, and the methylated substrate was quantified by scintillation counting.
Data analysis was performed using Excel and GraphPad Prism software for IC50 curve fits. For additional information on the histone methyltransferase assay, see, for example, Horiuchi K Y, et al., “Assay Development for Histone Methyltransferases,” Assay Drug Dev Technol.

Sequence of recombinant human NSD2 (amino acids 2-end) with N-terminal His tag (O96028 2-1365 limits assumed): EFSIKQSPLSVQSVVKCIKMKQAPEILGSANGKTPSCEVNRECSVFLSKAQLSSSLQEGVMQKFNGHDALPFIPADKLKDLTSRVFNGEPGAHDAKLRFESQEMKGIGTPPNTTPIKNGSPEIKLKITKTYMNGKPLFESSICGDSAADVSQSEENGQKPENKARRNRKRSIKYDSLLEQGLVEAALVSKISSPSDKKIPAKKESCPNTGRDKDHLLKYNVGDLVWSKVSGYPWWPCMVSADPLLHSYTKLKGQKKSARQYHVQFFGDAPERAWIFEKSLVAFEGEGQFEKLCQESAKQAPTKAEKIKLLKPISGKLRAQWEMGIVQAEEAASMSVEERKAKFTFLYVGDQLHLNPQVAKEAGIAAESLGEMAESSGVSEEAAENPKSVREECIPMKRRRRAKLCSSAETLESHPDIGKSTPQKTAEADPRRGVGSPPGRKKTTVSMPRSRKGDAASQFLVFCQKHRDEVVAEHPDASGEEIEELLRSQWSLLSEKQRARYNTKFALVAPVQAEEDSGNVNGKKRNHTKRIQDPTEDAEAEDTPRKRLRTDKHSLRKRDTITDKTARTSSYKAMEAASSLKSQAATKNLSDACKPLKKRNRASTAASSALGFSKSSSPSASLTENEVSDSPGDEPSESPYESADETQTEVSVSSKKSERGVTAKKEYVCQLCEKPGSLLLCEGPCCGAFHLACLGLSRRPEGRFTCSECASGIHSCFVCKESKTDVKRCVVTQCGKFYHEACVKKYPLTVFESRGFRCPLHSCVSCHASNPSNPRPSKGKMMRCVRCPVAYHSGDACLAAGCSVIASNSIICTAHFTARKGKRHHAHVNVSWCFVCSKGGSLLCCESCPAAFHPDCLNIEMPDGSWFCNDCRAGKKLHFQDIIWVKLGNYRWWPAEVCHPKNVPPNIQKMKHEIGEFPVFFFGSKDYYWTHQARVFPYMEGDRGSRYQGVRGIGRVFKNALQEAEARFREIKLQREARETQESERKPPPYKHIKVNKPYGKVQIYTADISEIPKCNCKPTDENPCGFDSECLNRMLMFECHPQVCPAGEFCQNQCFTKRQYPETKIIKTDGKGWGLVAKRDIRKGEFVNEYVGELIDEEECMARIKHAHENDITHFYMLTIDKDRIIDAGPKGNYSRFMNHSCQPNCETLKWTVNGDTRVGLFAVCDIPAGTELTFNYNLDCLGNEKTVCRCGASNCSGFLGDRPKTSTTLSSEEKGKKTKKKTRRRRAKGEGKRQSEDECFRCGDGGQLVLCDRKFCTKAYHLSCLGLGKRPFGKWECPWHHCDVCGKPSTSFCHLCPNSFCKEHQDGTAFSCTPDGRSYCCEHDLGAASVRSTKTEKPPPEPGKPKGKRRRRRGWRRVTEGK

IC50, 50 to 100 nM:
Nc1ncnc2c1ncn2Cc1cc(-c2cc(F)c(OCCCCCNc3cccc4c3C(=O)N(C3CCC(=O)NC3=O)C4=O)cc2F)ncc1N1CCC[C@](N)([C@H](O)C(F)F)C1 (stereo partly drawn) [I-62, 4-((5-(4-(5-((R)-3-amino-3-((S)-2,2-difluoro-1-hydroxyethyl)piperidin-1-yl)-4-((6-amino-9H-purin-9-yl)methyl)pyridin-2-yl)-2,5-difluorophenoxy)pentyl)amino)-2-(2,6-dioxopiperidin-3-yl)isoindoline-1,3-dione]
COc1c(F)cc(-c2cc(Cn3cnc4c(NCCCCCCNc5cccc6c5C(=O)N(C5CCC(=O)NC5=O)C6=O)ncnc43)c(N3CCC[C@@](N)(c4ccccn4)C3)cn2)cc1F (stereo partly drawn) [I-81, 4-((6-((9-((5-((S)-3-amino-3-(pyridin-2-yl)piperidin-1-yl)-2-(3,5-difluoro-4-methoxyphenyl)pyridin-4-yl)methyl)-9H-purin-6-yl)amino)hexyl)amino)-2-(2,6-dioxopiperidin-3-yl)isoindoline-1,3-dione]

IC50, 100 to 1000 nM:
Cc1ncsc1-c1ccc(CNC(=O)[C@@H]2C[C@@H](O)CN2C(=O)[C@@H](NC(=O)CCOCCOCCOCCOc2cc(F)c(-c3cc(Cn4cnc5c(N)ncnc54)c(N4CCC[C@](N)([C@H](O)C(F)F)C4)cn3)cc2F)C(C)(C)C)cc1 [I-84]
Nc1ncnc2c1ncn2Cc1cc(-c2cc(F)c(OCCCCCCNc3cccc4c3C(=O)N(C3CCC(=O)NC3=O)C4=O)cc2F)ncc1N1CCC[C@](N)([C@H](O)C(F)F)C1 (stereo partly drawn) [I-63, 4-((6-(4-(5-((R)-3-amino-3-((S)-2,2-difluoro-1-hydroxyethyl)piperidin-1-yl)-4-((6-amino-9H-purin-9-yl)methyl)pyridin-2-yl)-2,5-difluorophenoxy)hexyl)amino)-2-(2,6-dioxopiperidin-3-yl)isoindoline-1,3-dione]
COc1c(F)cc(-c2cc(Cn3cnc4c(NCCCCCNc5cccc6c5C(=O)N(C5CCC(=O)NC5=O)C6=O)ncnc43)c(N3CCC[C@](N)(c4ccccn4)C3)cn2)cc1F (stereo partly drawn) [I-79, 4-((5-((9-((5-((R)-3-amino-3-(pyridin-2-yl)piperidin-1-yl)-2-(3,5-difluoro-4-methoxyphenyl)pyridin-4-yl)methyl)-9H-purin-6-yl)amino)pentyl)amino)-2-(2,6-dioxopiperidin-3-yl)isoindoline-1,3-dione]
Cc1ncsc1-c1ccc(CNC(=O)[C@@H]2C[C@@H](O)CN2C(=O)[C@@H](NC(=O)CCCCCCCCCCCOc2cc(F)c(-c3cc(Cn4cnc5c(N)ncnc54)c(N4CCC[C@](N)([C@H](O)C(F)F)C4)cn3)cc2F)C(C)(C)C)cc1 [I-85]

IC50, > 1000 nM:
COc1c(F)cc(-c2cc(Cn3cnc4c(NCCCCCCCNc5cccc6c5C(=O)N(C5CCC(=O)NC5=O)C6=O)ncnc43)c(N3CCC[C@](N)(c4ccccn4)C3)cn2)cc1F (stereo partly drawn) [I-82, 4-((7-((9-((5-((R)-3-amino-3-(pyridin-2-yl)piperidin-1-yl)-2-(3,5-difluoro-4-methoxyphenyl)pyridin-4-yl)methyl)-9H-purin-6-yl)amino)heptyl)amino)-2-(2,6-dioxopiperidin-3-yl)isoindoline-1,3-dione]
Nc1ncnc2c1ncn2Cc1cc(-c2cc(F)c(OCCCCNc3cccc4c3C(=O)N(C3CCC(=O)NC3=O)C4=O)c(F)c2)ncc1N1CCC[C@@](N)(c2ccccn2)C1 (stereo partly drawn) [I-68, 4-((4-(4-(5-((S)-3-amino-3-(pyridin-2-yl)piperidin-1-yl)-4-((6-amino-9H-purin-9-yl)methyl)pyridin-2-yl)-2,6-difluorophenoxy)butyl)amino)-2-(2,6-dioxopiperidin-3-yl)isoindoline-1,3-dione]
COc1cc(F)c(-c2cc(Cn3cnc4c(NCCCCCCNc5cccc6c5C(=O)N(C5CCC(=O)NC5=O)C6=O)ncnc43)c(N3CCC[C@](N)([C@H](O)C(F)F)C3)cn2)cc1F (stereo partly drawn) [I-77, 4-((6-((9-((5-((R)-3-amino-3-((S)-2,2-difluoro-1-hydroxyethyl)piperidin-1-yl)-2-(2,5-difluoro-4-methoxyphenyl)pyridin-4-yl)methyl)-9H-purin-6-yl)amino)hexyl)amino)-2-(2,6-dioxopiperidin-3-yl)isoindoline-1,3-dione]
COc1c(F)cc(-c2cc(Cn3cnc4c(NCCCCCCNc5cccc6c5C(=O)N(C5CCC(=O)NC5=O)C6=O)ncnc43)c(N3CCC[C@](N)(c4ccccn4)C3)cn2)cc1F (stereo partly drawn) [I-80, 4-((6-((9-((5-((R)-3-amino-3-(pyridin-2-yl)piperidin-1-yl)-2-(3,5-difluoro-4-methoxyphenyl)pyridin-4-yl)methyl)-9H-purin-6-yl)amino)hexyl)amino)-2-(2,6-dioxopiperidin-3-yl)isoindoline-1,3-dione]
Nc1ncnc2c1ncn2Cc1cc(-c2cc(F)c(OCCCCCNc3cccc4c3C(=O)N(C3CCC(=O)NC3=O)C4=O)c(F)c2)ncc1N1CCC[C@@](N)(c2ccccn2)C1 (stereo partly shown) [I-70]
COc1cc(F)c(-c2cc(Cn3cnc4c(NCCCCCNc5cccc6c5C(=O)N(C5CCC(=O)NC5=O)C6=O)ncnc43)c(N3CCC[C@](N)([C@H](O)C(F)F)C3)cn2)cc1F (stereo partly drawn) [I-76, 4-((5-((9-((5-((R)-3-amino-3-((S)-2,2-difluoro-1-hydroxyethyl)piperidin-1-yl)-2-(2,5-difluoro-4-methoxyphenyl)pyridin-4-yl)methyl)-9H-purin-6-yl)amino)pentyl)amino)-2-(2,6-dioxopiperidin-3-yl)isoindoline-1,3-dione]

IC50, < 50 nM:
Nc1ncnc2c1ncn2Cc1cc(-c2cc(F)c(OCC(=O)NCCNc3cccc4c3C(=O)N(C3CCC(=O)NC3=O)C4=O)cc2F)ncc1N1CCC[C@](N)([C@H](O)C(F)F)C1 (stereo partly drawn) [I-65, 2-(4-(5-((R)-3-amino-3-((S)-2,2-difluoro-1-hydroxyethyl)piperidin-1-yl)-4-((6-amino-9H-purin-9-yl)methyl)pyridin-2-yl)-2,5-difluorophenoxy)-N-(2-((2-(2,6-dioxopiperidin-3-yl)-1,3-dioxoisoindolin-4-yl)amino)ethyl)acetamide]
Nc1ncnc2c1ncn2Cc1cc(-c2cc(F)c(OCCCCCNc3cccc4c3C(=O)N(C3CCC(=O)NC3=O)C4=O)c(F)c2)ncc1N1CCC[C@](N)(c2ccccn2)C1 (stereo partly drawn) [I-69, 4-((5-(4-(5-((R)-3-amino-3-(pyridin-2-yl)piperidin-1-yl)-4-((6-amino-9H-purin-9-yl)methyl)pyridin-2-yl)-2,6-difluorophenoxy)pentyl)amino)-2-(2,6-dioxopiperidin-3-yl)isoindoline-1,3-dione]
Nc1ncnc2c1ncn2Cc1cc(-c2cc(F)c(OCC(=O)NCCCNc3cccc4c3C(=O)N(C3CCC(=O)NC3=O)C4=O)cc2F)ncc1N1CCC[C@](N)([C@H](O)C(F)F)C1 (stereo partly drawn) [I-66, 2-(4-(5-((R)-3-amino-3-((S)-2,2-difluoro-1-hydroxyethyl)piperidin-1-yl)-4-((6-amino-9H-purin-9-yl)methyl)pyridin-2-yl)-2,5-difluorophenoxy)-N-(3-((2-(2,6-dioxopiperidin-3-yl)-1,3-dioxoisoindolin-4-yl)amino)propyl)acetamide]
Nc1ncnc2c1ncn2Cc1cc(-c2cc(F)c(OCC(=O)Nc3cccc4c3C(=O)N(C3CCC(=O)NC3=O)C4=O)cc2F)ncc1N1CCC[C@](N)([C@H](O)C(F)F)C1 (stereo partly shown) [I-64]
Nc1ncnc2c1ncn2Cc1cc(-c2cc(F)c(OCCCCNc3cccc4c3C(=O)N(C3CCC(=O)NC3=O)C4=O)cc2F)ncc1N1CCC[C@](N)([C@H](O)C(F)F)C1 (stereo partly drawn) [I-61, 4-((4-(4-(5-((R)-3-amino-3-((S)-2,2-difluoro-1-hydroxyethyl)piperidin-1-yl)-4-((6-amino-9H-purin-9-yl)methyl)pyridin-2-yl)-2,5-difluorophenoxy)butyl)amino)-2-(2,6-dioxopiperidin-3-yl)isoindoline-1,3-dione]
Nc1ncnc2c1ncn2Cc1cc(-c2cc(F)c(OCCCCCCNc3cccc4c3C(=O)N(C3CCC(=O)NC3=O)C4=O)c(F)c2)ncc1N1CCC[C@](N)(c2ccccn2)C1 (stereo partly drawn) [I-71, 4-((6-(4-(5-((R)-3-amino-3-(pyridin-2-yl)piperidin-1-yl)-4-((6-amino-9H-purin-9-yl)methyl)pyridin-2-yl)-2,6-difluorophenoxy)hexyl)amino)-2-(2,6-dioxopiperidin-3-yl)isoindoline-1,3-dione]
Nc1ncnc2c1ncn2Cc1cc(-c2cc(F)c(OCCCCNc3cccc4c3C(=O)N(C3CCC(=O)NC3=O)C4=O)c(F)c2)ncc1N1CCC[C@](N)(c2ccccn2)C1 (stereo partly drawn) [I-67, 4-((4-(4-(5-((R)-3-amino-3-(pyridin-2-yl)piperidin-1-yl)-4-((6-amino-9H-purin-9-yl)methyl)pyridin-2-yl)-2,6-difluorophenoxy)butyl)amino)-2-(2,6-dioxopiperidin-3-yl)isoindoline-1,3-dione]
